Legend:
[1] = target: T1, mutant integrin CD11bE320A/CD18 (Homo sapiens, UniProt P11215, E336A); test: Adhesion of K562 E320A cells to immobilized Fg; format: cell-based
T1 construct: expressed in transfected cells; host or cells: K562
Experimental: K562 cells (ATCC) stably transfected with wild-type integrin CD11b/CD18 (K562 CD11b/CD18) have been described previously. Mutant CD11bE320A has been described previously. K562 cells stably transfected with mutant integrin CD11bE320A/CD18 (K562 E320A) were generated according to literature protocols. All cell lines were maintained in Iscove's Modified Dulbecco's Medium (IMDM) supplemented with 10% heat-inactivated fetal bovine serum, 50 IU/ml penicillin and streptomycin and 0.5 mg/ml G418.
Cell adhesion assays with immobilized ligands were performed as previously described. Assays with all different K562 cell lines (K562, K562 CD11b/CD18 and K562 E320A) were performed in an identical fashion. Briefly, 384-well Highbind microtiter plates were coated with a 30 μL solution of ligand in Phosphate Buffered Saline, pH 7.4 containing 1 mM each of Ca^2+ and Mg^2+ ions (PBS^++) overnight at 4° C. Ligand Fg was coated at a concentration of […] and iC3b at […]. Heterodimer specific mAb IB4 (ascites) was coated at a 1:100 dilution. […] Cells remaining adherent were fixed using formaldehyde and were quantitated using imaging microscopy, as previously described. […]

Fischer 344 rats = test: Balloon induced arterial injury in rats; format: in vivo, rat
Source text: All surgeries were under isoflurane anaesthesia (Baxter, Ill., USA). Balloon injury in the right iliac artery was inflicted with a 2F Fogarty catheter (Baxter Corp., Irvine, Calif., USA) adapted to a custom angiographic kit (Boston Scientific, Scimed). An aortotomy in the abdominal aorta was made to insert a 2F Fogarty embolectomy catheter to the level of the right iliac artery. The balloon was inflated to 1.5-1.6 atmospheres and retracted to the arteriotomy site three times. The aortic excision was repaired with 8.0 sutures. The abdominal cavity was closed by planes using interrupted suture pattern. Arterial specimens were collected 3-30 days after injury and fixed in 4% formalin-PBS (Sigma-Aldrich, St. Louis, Mo.) for 5 min and analyzed by histology and immunostaining
Elastica van Gieson staining was used for histochemical analyses to evaluate neointima formation. Morphometric analyses was performed in a blinded fashion using NIH ImageJ. Immunostaining with anti-rat CD68 (1:50, AbD Serotec) for the detection of macrophages in the tissue.
Leukocyte recruitment precedes neointimal thickening and restenosis following percutaneous transluminal coronary angioplasty (PTCA). […]

murine neutrophils = test: Neutrophil chemotaxis assay in Zigmond chamber, fMLP gradient; format: cell-based, mouse; details: vs DMSO
Experimental: Neutrophil chemotaxis on 2D surfaces was performed using Zigmond chamber (Neuro Probe) as described on acid cleaned glass or Fg coated glass coverslips. Cell migration was allowed in a gradient of […] bacterial peptide formyl-methionyl-leucyl-phenylalanine (fMLP, Sigma), in the absence or presence of leukadherins ([…]). Cell migration was recorded at every 30 sec interval for a period of 25 min using a Nikon Eclipse 90i inverted microscope. Images were acquired with a Nikon DS camera using a PLAN APO 20X differential interference contrast (DIC) microscopy objective and captured into Nikon Imaging software. Analysis of neutrophil migration was performed with the motile population that had moved more than 10 μm using ImageJ software (NIH, USA) with manual cell tracking using the Ibidi chemotaxis and migration tool plugin for ImageJ. Migration velocity and the total displacement (distance from origin) were also analyzed. Quantitation was performed using at least 50 independent cells per condition from at least three independent experiments.
Leukocyte chemotaxis on 2D surfaces involves integrin-mediated sequential adhesion and de-adhesion steps [77]. […] To test if increased cell-adhesion by leukaderins affects cell migration, we used murine neutrophils chemotaxing in response to a gradient of chemokine peptide formyl-Met-Leu-Phe (fMLP). […]

T1 sequence (P11215 17-1152 E336A): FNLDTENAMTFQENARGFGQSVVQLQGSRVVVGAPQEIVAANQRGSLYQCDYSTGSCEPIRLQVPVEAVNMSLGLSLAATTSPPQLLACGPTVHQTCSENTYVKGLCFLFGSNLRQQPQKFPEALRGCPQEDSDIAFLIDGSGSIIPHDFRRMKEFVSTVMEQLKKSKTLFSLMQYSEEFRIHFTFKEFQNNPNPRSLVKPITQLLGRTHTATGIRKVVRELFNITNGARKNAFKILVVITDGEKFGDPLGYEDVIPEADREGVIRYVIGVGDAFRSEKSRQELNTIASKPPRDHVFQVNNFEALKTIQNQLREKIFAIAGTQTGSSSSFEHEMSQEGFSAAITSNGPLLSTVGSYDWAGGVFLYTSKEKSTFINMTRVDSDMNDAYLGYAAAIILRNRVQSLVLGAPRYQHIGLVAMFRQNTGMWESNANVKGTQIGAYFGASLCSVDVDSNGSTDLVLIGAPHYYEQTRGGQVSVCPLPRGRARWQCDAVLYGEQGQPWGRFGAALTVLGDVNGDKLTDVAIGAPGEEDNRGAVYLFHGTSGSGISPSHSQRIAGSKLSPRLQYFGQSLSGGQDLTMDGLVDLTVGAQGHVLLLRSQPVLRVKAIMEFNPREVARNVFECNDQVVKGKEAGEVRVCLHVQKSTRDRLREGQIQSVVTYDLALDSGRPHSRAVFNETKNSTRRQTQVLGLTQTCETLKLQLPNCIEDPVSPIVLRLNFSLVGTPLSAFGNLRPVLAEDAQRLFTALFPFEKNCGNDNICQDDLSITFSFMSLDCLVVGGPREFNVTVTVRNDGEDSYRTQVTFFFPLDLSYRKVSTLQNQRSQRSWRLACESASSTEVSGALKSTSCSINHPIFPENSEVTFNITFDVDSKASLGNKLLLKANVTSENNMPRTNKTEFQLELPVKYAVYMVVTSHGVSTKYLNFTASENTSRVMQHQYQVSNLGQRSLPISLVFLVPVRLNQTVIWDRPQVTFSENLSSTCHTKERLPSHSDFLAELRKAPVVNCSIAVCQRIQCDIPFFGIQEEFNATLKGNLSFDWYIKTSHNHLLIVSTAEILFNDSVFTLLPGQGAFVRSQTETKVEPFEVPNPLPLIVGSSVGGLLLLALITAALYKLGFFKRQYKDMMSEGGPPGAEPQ
T1 sequence (P05107 23-769 partner): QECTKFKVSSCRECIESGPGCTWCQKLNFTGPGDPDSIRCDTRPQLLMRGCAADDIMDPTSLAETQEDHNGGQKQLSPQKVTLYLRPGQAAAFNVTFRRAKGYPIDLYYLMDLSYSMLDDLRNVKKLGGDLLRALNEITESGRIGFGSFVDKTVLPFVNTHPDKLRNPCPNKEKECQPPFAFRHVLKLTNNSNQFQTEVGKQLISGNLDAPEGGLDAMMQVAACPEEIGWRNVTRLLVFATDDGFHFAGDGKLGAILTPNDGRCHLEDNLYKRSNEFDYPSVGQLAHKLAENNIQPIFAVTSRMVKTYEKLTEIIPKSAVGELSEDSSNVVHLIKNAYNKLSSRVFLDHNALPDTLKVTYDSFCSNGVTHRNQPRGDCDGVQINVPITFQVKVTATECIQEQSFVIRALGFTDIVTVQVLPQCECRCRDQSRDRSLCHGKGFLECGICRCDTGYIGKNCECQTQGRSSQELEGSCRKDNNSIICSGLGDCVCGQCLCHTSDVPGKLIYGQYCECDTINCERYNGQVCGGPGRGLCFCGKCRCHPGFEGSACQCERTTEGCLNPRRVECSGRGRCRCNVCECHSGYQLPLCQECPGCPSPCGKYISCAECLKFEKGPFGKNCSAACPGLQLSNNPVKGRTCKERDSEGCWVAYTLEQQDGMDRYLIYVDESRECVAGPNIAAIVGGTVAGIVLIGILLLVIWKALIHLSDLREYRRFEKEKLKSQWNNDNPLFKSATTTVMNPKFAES

SMILES: O=C(O)c1ccc(-c2ccc(/C=C3\SC(=S)N(Cc4ccccc4)C3=O)o2)cc1 [LA1]
- binding of K562 E320A to Fg [1]: selectively increased
- neointima to media ratio (Fischer 344 rats; rat arteries 21 days after balloon injury, vehicle 0.23±0.01): 0.16±0.02
- number of medial macrophages (CD68) (Fischer 344 rats; rat arteries three days post-injury, vehicle 42.2±6.7): 17.7±3.1
- lateral migration of neutrophils (murine neutrophils): significant decrease
- migration velocity of neutrophils (murine neutrophils): significant decrease

Source: patent publication US9023876B2, “Compounds and methods for regulating integrins” (Adhaere Pharmaceuticals, Inc., priority 2010, dated 2015)
